Assays:
Assay type in all cases: cell-based
[1] = test system: protoplasts of the Primula rupestris leaves; assay: FLIPR calcium signal detection in protoplasts of Primula rupestris leaves
Protocol: (§1) (1) The protoplasts prepared in Example 1 were taken out, and mixed with the calcium dye according to a ratio of protoplast: calcium dye=1:1, and a group added with only a calcium dye and without protoplasts was taken as a control group, and added to a 96-well plate of a cell plate, as shown in Table 1:
(2) A buffer (helps buffer) was used to prepare a 96-well plate of the cell plate with different concentrations of CaCl2 solutions: CaCl2 (0, 10, 20, 40, 60, 80, 100, 150, 200, 300, and 500 mM). A group without adding protoplasts was taken as a control group.
(3) The cell plate was wrapped with a plastic wrap, and incubated at 37° C. for 1 h. After the incubation, the two plates were balanced, centrifuged at 600 rpm at 4° C. for 1-2 min, and loaded on the machine.
(4) The above experiment was repeated for 10 times to observe whether the results were consistent. The order of concentrations from top to bottom in the legend on the right in FIG. 3 and the order of concentrations from left to right in Table 2 can be in one-to-one correspondence.
The buffer was used to prepare a 96-well plate of the cell plate with different concentrations of CaCl2 solutions: CaCl2 (0, 100, 200, 220, 240, 260, 280, 300, 350, 400, and 450 mM). The cell plate was wrapped with a plastic wrap, and incubated at 37° C. for 1 h. After the incubation, the two plates were balanced, centrifuged at 600 rpm at 4° C. for 1-2 min, and loaded on the machine. The order of concentrations from top to bottom in the legend on the right in FIG. 5 and the order of concentrations from left to right in Table 3 can be in one-to-one correspondence:
Using step (1) in Example 2, a buffer was used to prepare a 96-well plate of a cell plate with different concentrations of EGTA solutions: EGTA solution (0, 0.1, 0.5, 1.0, 5, 10, 25, 50, 100, 150, and 200 mM).
The cell plate was wrapped with a plastic wrap, and incubated at 37° C. for 1 h. After the incubation, the two plates were balanced, centrifuged at 600 rpm at 4° C. for 1-2 min, and loaded on the machine.
The above experiment was repeated for 10 times to observe whether the results were consistent. The order of concentrations from top to bottom in the legend on the right in FIG. 7 and the order of concentrations from left to right in Table 4 can be in one-to-one correspondence.
as §1, with “dye=1:1 till a total of 150 μL,” for “dye=1:1,”, “plate.” for “plate, as shown in Table 1:”
(2) 220 mM of CaCl2 solution and 100 μM of EGTA solution were added to the 96-well plate of the cell plate in step (1).
(4) The above experiment was repeated for 10 times to observe whether the results were consistent.
The difference was that the EGTA solution and the CaCl2 solution in step (3) had different concentrations, and the corresponding parameters are shown in Table 5: […]

[2] = test system: protoplasts of the Primula rupestris sepals; assay: FLIPR calcium signal detection in protoplasts of Primula rupestris sepals
Text: According to the method in Example 4, the EGTA solution and the CaCl2 solution were combined to treat the change of the protoplasts of the Primula rupestris sepals, and the parameters of the examples and comparative examples are shown in Table 6: […]

[3] = test system: protoplasts of the Primula rupestris petals; assay: FLIPR calcium signal detection in protoplasts of Primula rupestris petals
Text: According to the method in Example 4, the EGTA solution and the CaCl2 solution were combined to treat the change of the protoplasts of the Primula rupestris petals, and the parameters of the examples and comparative examples are shown in Table 7:

[4] = test system: protoplasts of the valerian leaves; assay: FLIPR calcium signal detection in protoplasts of valerian leaves
[5] = method of Example 2, FIG. 18-19
[6] = method of Example 2, FIG. 25-26

[Ca+2].[Cl-].[Cl-] [CaCl2]
concentration of the CaCl2 solution at which the calcium signal surges significantly ([1]; first series 0-500 mM CaCl2, 37° C. 1 h, FIG. 2-3): 300 mM
concentration of the CaCl2 solution at which the calcium signal surges significantly ([1]; refined series 0-450 mM CaCl2, 37° C. 1 h, FIG. 4-5): 220 mM
confirmed concentration of the CaCl2 solution (exogenous calcium signal stimulation) ([1]; refined series, FIG. 4-5): 220 to 450 mM
CaCl2 concentration at which the calcium signal changes significantly ([2]; method of Example 2, FIG. 11-12): 350 mM
CaCl2 concentration range in which the calcium signal changes significantly [3, 5]: 350 to 450 mM
concentration of the CaCl2 solution at which the calcium signal surges significantly [3, 5]: 350 mM
CaCl2 concentration range in which the calcium signal changes significantly [4, 6]: 220 to 450 mM
concentration of the CaCl2 solution at which the calcium signal surges significantly [4, 6]: 220 mM

O=C(O)CN(CCOCCOCCN(CC(=O)O)CC(=O)O)CC(=O)O [EGTA, ethylene glycol tetraacetic acid]
effect of composite reaction of EGTA solution and CaCl2 solution on calcium signal fluorescence ([1]; EGTA plus CaCl2 1:1, Table 5 settings, FIG. 8-9): can chelate the change of the fluorescence caused by the exogenous calcium signal
EGTA solution concentration with relatively excellent chelation effect on the calcium signal ([1]; EGTA series 0-200, 37° C. 1 h, FIG. 6-7): 5 to 200 µM
effect of composite reaction of EGTA solution and CaCl2 solution on calcium signal fluorescence ([2]; EGTA plus CaCl2, Table 6 settings, FIG. 15-16): can chelate the change of the fluorescence caused by the exogenous calcium signal
confirmed concentration of the calcium signal chelator EGTA solution ([2]; method of Example 3, FIG. 13-14): 5 to 200 µM
effect of composite reaction of EGTA solution and CaCl2 solution on calcium signal fluorescence ([3]; EGTA plus CaCl2, Table 7 settings, FIG. 22-23): can chelate the change of the fluorescence caused by the exogenous calcium signal
confirmed concentration of the calcium signal chelator EGTA solution ([3]; method of Example 3, FIG. 20-21): 5 to 200 µM
effect of composite reaction of EGTA solution and CaCl2 solution on calcium signal fluorescence ([4]; EGTA plus CaCl2, Table 8 settings, FIG. 29-30): can chelate the change of the fluorescence caused by the exogenous calcium signal
confirmed concentration of the calcium signal chelator EGTA solution ([4]; method of Example 3, FIG. 27-28): 0.1 to 200 µM
